Entries after “also recorded” stand apart in the source; their conditions may differ.
Columns and labels:
[1] = target: T1, human D3R (Homo sapiens, UniProt P35462); assay: Radioligand competition binding, [3H]N-methylspiperone, D3R; settings: Table 1A; HEK 293 cells transfected with hD3R, [3H]N-methylspiperone; read-out: D3R K ± SEM
T1 construct: expressed in transfected cells; host or cells: HEK293
Protocol: Binding at dopamine D2-like receptors was determined using previously described methods. […] Upon reaching 80-90% confluence, cells were harvested using pre-mixed Earle's Balanced Salt Solution (EBSS) with 5 μM EDTA (Life Technologies) and centrifuged at 3000 rpm for 10 min at 21° C. The supernatant was removed and the pellet was resuspended in 10 mL hypotonic lysis buffer (5 mM MgCl2·6H2O, 5 mM Tris, pH 7.4 at 4° C.) and centrifuged at 20,000 rpm for 30 min at 4° C. The pellet was then resuspended in fresh EBSS buffer made from 8.7 g/L Earle's Balanced Salts without phenol red (US Biological, Salem, MA), 2.2 g/L sodium bicarbonate, pH to 7.4. A Bradford protein assay (Bio-Rad, Hercules, CA) was used to determine the protein concentration and membranes were diluted to 500 μg/mL and stored in a −80° C. freezer for later use.
Radioligand competition binding experiments were conducted using thawed membranes. Test compounds were freshly dissolved in 30% DMSO and 70% H2O to a stock concentration of 100 μM. To assist the solubilization of free-base compounds, 10 μl of glacial acetic acid was added along with the DMSO. Each test compound was then diluted into 13 half-log serial dilutions using 30% DMSO vehicle; final test concentrations ranged from 10 μM to 10 pM. Previously frozen membranes were diluted in fresh EBSS to a 100 μg/mL (for hD2R or hD3R) or 200 μg/mL (hD4R) stock for binding. Radioligand competition experiments were conducted in glass tubes containing 300 μl fresh EBSS buffer with 0.2 mM sodium metabisulfite, 50 μl of diluted test compound, 100 μl of membranes (10 μg total protein for hD2R or hD3R, 20 μg total protein for hD4R), and 50 μl of [^3H]N-methylspiperone (0.4 nM final concentration; Perkin Elmer). Nonspecific binding was determined using 10 μM butaclamol (Sigma-Aldrich, St. Louis, MO) and total binding was determined with 30% DMSO vehicle. All compound dilutions were tested in triplicate and the reaction incubated for one hour at room temperature. The reaction was terminated by filtration through Whatman GF/B filters, presoaked for one hour in 0.5% polyethylenimine, using a Brandel R48 filtering manifold (Brandel Instruments, Gaithersburg, MD). The filters were washed 3 times with 3 mL of ice cold EBSS buffer and transferred to scintillation vials. […] IC50 values for each compound were determined from dose-response curves and Ki values were calculated using the Cheng-Prusoff equation; these analyses were performed using GraphPad Prism version 5.00 for Windows (GraphPad Software, San Diego, CA). Reported Ki values were determined from least three independent experiments.

[2] = system: squirrel monkeys; assay: THC priming-induced reinstatement of drug seeking in squirrel monkeys; type: in vivo, squirrel monkey (Saimiri sciureus); settings: squirrel monkeys, 1, 3, and 10 mg/kg i.m., FIG. 9
Excerpt: Reinstatement studies: In order to separately determine the reinstatement effects of a priming injection and drug-associated cues, we use two different extinction protocols (described below) that allow us to isolate the effects of these independent variables.
Priming-induced reinstatement: Before priming-induced reinstatement testing began, monkeys were allowed to self-administer the training dose of THC until they reached a stable baseline (5-10 sessions). In subsequent extinction sessions, lever presses led to i.v. saline infusions plus the visual cues that had been associated previously with THC. After at least two sessions of extinction, when responding had reached a low, stable level, a priming injection of THC (0.04 mg/kg i.v.) was given immediately before the next session, during which responding (FR10) continued to produce only i.v. saline injections and the discrete visual cues. […] A non-contingent i.v. injection of vehicle was also given before each extinction session as a control for the drug priming treatment.
Δ^9-tetrahydrocannabinol (THC, NIDA Drug Supply Program, Bethesda, MD, USA) was dissolved in a vehicle containing 1% Tween 80, 1% ethanol, and saline to obtain stock solution (0.4 mg/ml) and further diluted with saline. In the reinstatement tests, THC was injected i.v. (1 ml/kg) immediately before the session.

T1 sequence (P35462 whole entry): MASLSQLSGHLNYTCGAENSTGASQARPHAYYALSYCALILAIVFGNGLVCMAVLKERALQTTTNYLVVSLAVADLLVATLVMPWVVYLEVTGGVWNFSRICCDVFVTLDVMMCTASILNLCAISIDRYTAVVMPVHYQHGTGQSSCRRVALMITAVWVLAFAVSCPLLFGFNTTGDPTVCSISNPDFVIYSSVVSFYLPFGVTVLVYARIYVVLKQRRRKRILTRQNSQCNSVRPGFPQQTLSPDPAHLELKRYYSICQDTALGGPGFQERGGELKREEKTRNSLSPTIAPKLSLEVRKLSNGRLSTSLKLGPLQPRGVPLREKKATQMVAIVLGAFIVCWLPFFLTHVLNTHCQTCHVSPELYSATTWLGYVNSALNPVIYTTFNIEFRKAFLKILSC

CCc1cc(Cl)c(OC)c(N2CCN(CC(O)CCNC(=O)c3cc4ccccc4[nH]3)CC2)c1 (racemic) [Compound 29, N-(4-(4-(3-chloro-5-ethyl-2-methoxyphenyl)piperazin-1-yl)-3-hydroxybutyl)-1H-indole-2-carboxamide]
Ki [1]: 6.29 nM | THC-induced reinstatement to drug seeking [2]: attenuates THC-induced reinstatement to drug seeking; also recorded: blocked THC-induced reinstatement of drug seeking | THC-induced reinstatement to drug seeking ([2]; listed as (±)-29): attenuation of THC-induced reinstatement to drug seeking

— patent US12162861B2, “Dopamine D3 receptor selective antagonists/partial agonists; method of making; and use thereof” (THE UNITED STATES OF AMERICA, AS REPRESENTED BY THE …, priority 2016, dated 2024)
